The data set can be described thus: activity coefficient (dimensionless); of the first substance listed, at infinite dilution; xn = mol fraction of the nth substance listed. The conditions noted are these: Liquid, Chromatography, x1 = 0.

± gives the expanded uncertainty stated by the source.

As to `c1ccncc1` [pyridine] + CN(C)c1cc[n+](COCCCOC[n+]2ccc(N(C)C)cc2)cc1.O=S(=O)([N-]S(=O)(=O)C(F)(F)F)C(F)(F)F.O=S(=O)([N-]S(=O)(=O)C(F)(F)F)C(F)(F)F, the activity coefficient amounted to 0.29 ± 0.03 (323.15 K), 0.31 ± 0.03 (333.15 K) and 0.32 ± 0.03 (343.15 K).

For `c1ccncc1` [pyridine] + Cn1cc[n+](COCCCOC[n+]2ccn(C)c2)c1.N#C[N-]C#N.N#C[N-]C#N, the activity coefficient reads like this: (323.15 K) 1 ± 0.06; (333.15 K) 1.01 ± 0.06; (343.15 K) 1.04 ± 0.07.

On to `c1ccncc1` [pyridine] + Cn1cc[n+](COCCCOC[n+]2ccn(C)c2)c1.O=S(=O)([N-]S(=O)(=O)C(F)(F)F)C(F)(F)F.O=S(=O)([N-]S(=O)(=O)C(F)(F)F)C(F)(F)F, for which the activity coefficient is, setting by setting: (323.15 K) 0.4 ± 0.03; (333.15 K) 0.41 ± 0.03; (343.15 K) 0.41 ± 0.03.

For `c1ccncc1` [pyridine] + N#C[N-]C#N.N#C[N-]C#N.c1ccc(Cn2cc[n+](COCCCOC[n+]3ccn(Cc4ccccc4)c3)c2)cc1, the activity coefficient is, setting by setting: (323.15 K) 1.1 ± 0.07; (333.15 K) 1.1 ± 0.07; (343.15 K) 1.12 ± 0.07.

Consider `ClC(Cl)(Cl)Cl` [tetrachloromethane] + CCCCCCCCn1cc[n+](COCCC)c1C.N#C[N-]C#N, for which the activity coefficient is 1.21 ± 0.08 (323.15 K), 1.23 ± 0.08 (333.15 K) and 1.24 ± 0.08 (343.15 K).

For the compound `ClC(Cl)(Cl)Cl` [tetrachloromethane] + CCCCCCCCn1cc[n+](COCCC)c1C.O=S(=O)([N-]S(=O)(=O)C(F)(F)F)C(F)(F)F, the activity coefficient (323.15 K) turned out to be 1.21 ± 0.08, the activity coefficient (333.15 K) was 1.19 ± 0.08 and the activity coefficient (343.15 K) came to 1.24 ± 0.08.

For the compound `ClC(Cl)(Cl)Cl` [tetrachloromethane] + CCCCCCCCn1cc[n+](COCCCOC[n+]2ccn(CCCCCCCC)c2C)c1C.N#C[N-]C#N.N#C[N-]C#N, the activity coefficient amounted to 1.11 ± 0.07 (323.15 K), 1.12 ± 0.07 (333.15 K) and 1.12 ± 0.07 (343.15 K).

As to `ClC(Cl)(Cl)Cl` [tetrachloromethane] + CCCCCCCCn1cc[n+](COCCCOC[n+]2ccn(CCCCCCCC)c2C)c1C.O=S(=O)([N-]S(=O)(=O)C(F)(F)F)C(F)(F)F.O=S(=O)([N-]S(=O)(=O)C(F)(F)F)C(F)(F)F, the activity coefficient (323.15 K) turned out to be 0.99 ± 0.06, the activity coefficient (333.15 K) turned out to be 0.92 ± 0.06 and the activity coefficient (343.15 K) was determined as 1.02 ± 0.06.

As to `ClC(Cl)(Cl)Cl` [tetrachloromethane] + CCCOC[n+]1ccc(N(C)C)cc1.O=S(=O)([N-]S(=O)(=O)C(F)(F)F)C(F)(F)F, the activity coefficient is, setting by setting: (323.15 K) 2.01 ± 0.14; (333.15 K) 2.08 ± 0.14; (343.15 K) 1.95 ± 0.13.

For `ClC(Cl)(Cl)Cl` [tetrachloromethane] + CCCOC[n+]1ccn(C)c1.F[B-](F)(F)F, the activity coefficient (323.15 K) turned out to be 8.91 ± 0.61, the activity coefficient (333.15 K) amounted to 8.58 ± 0.59 and the activity coefficient (343.15 K) amounted to 8.19 ± 0.56.

Consider `ClC(Cl)(Cl)Cl` [tetrachloromethane] + CCCOC[n+]1ccn(C)c1.N#C[N-]C#N, for which the activity coefficient reads like this: (323.15 K) 4.04 ± 0.28; (333.15 K) 4.08 ± 0.28; (343.15 K) 4.39 ± 0.3.

As to `ClC(Cl)(Cl)Cl` [tetrachloromethane] + CCCOC[n+]1ccn(C)c1.O=S(=O)([N-]S(=O)(=O)C(F)(F)F)C(F)(F)F, the activity coefficient (323.15 K) turned out to be 3 ± 0.2, the activity coefficient (333.15 K) stood at 3.05 ± 0.21 and the activity coefficient (343.15 K) stood at 2.85 ± 0.19.

Take `ClC(Cl)(Cl)Cl` [tetrachloromethane] + CCCOC[n+]1ccn(Cc2ccccc2)c1.F[B-](F)(F)F: the activity coefficient by setting is: (323.15 K) 5.01 ± 0.34; (333.15 K) 4.71 ± 0.32; (343.15 K) 4.58 ± 0.31.

`ClC(Cl)(Cl)Cl` [tetrachloromethane] + CCCOC[n+]1ccn(Cc2ccccc2)c1.N#C[N-]C#N: the activity coefficient is 2.5 ± 0.17 (323.15 K), 2.58 ± 0.18 (333.15 K) and 2.67 ± 0.18 (343.15 K).

Turning to `ClC(Cl)(Cl)Cl` [tetrachloromethane] + CCCOC[n+]1ccn(Cc2ccccc2)c1.O=S(=O)([N-]S(=O)(=O)C(F)(F)F)C(F)(F)F, the activity coefficient is, setting by setting: (323.15 K) 1.87 ± 0.13; (333.15 K) 1.83 ± 0.12; (343.15 K) 1.81 ± 0.12.

Take `ClC(Cl)(Cl)Cl` [tetrachloromethane] + Cn1cc[n+](COCCCOC[n+]2ccn(C)c2)c1.N#C[N-]C#N.N#C[N-]C#N: the activity coefficient by setting is: (323.15 K) 6.68 ± 0.46; (333.15 K) 6.94 ± 0.47; (343.15 K) 7 ± 0.48.

With `ClC(Cl)(Cl)Cl` [tetrachloromethane] + Cn1cc[n+](COCCCOC[n+]2ccn(C)c2)c1.O=S(=O)([N-]S(=O)(=O)C(F)(F)F)C(F)(F)F.O=S(=O)([N-]S(=O)(=O)C(F)(F)F)C(F)(F)F, the activity coefficient (323.15 K) turned out to be 3.21 ± 0.22, the activity coefficient (333.15 K) was 3.03 ± 0.21 and the activity coefficient (343.15 K) turned out to be 2.29 ± 0.16.

As for `CCCCCCCCCCCCCC` [tetradecane] + CCCOC[n+]1ccn(C)c1.F[B-](F)(F)F, the activity coefficient by setting is: (323.15 K) 2700 ± 190; (333.15 K) 2500 ± 170; (343.15 K) 2300 ± 160.

As to `CCCCCCCCCCCCCC` [tetradecane] + CCCOC[n+]1ccn(C)c1.N#C[N-]C#N, the activity coefficient is 1510 ± 100 (323.15 K), 1390 ± 96 (333.15 K) and 1260 ± 87 (343.15 K).

As to `c1ccsc1` [thiophene] + CCCCCCCCn1cc[n+](COCCC)c1C.N#C[N-]C#N, the activity coefficient runs as follows: (323.15 K) 0.66 ± 0.05; (333.15 K) 0.66 ± 0.05; (343.15 K) 0.64 ± 0.04.

As to `c1ccsc1` [thiophene] + CCCCCCCCn1cc[n+](COCCC)c1C.O=S(=O)([N-]S(=O)(=O)C(F)(F)F)C(F)(F)F, the activity coefficient is, setting by setting: (323.15 K) 0.57 ± 0.04; (333.15 K) 0.52 ± 0.04; (343.15 K) 0.56 ± 0.04.

For `c1ccsc1` [thiophene] + CCCCCCCCn1cc[n+](COCCCOC[n+]2ccn(CCCCCCCC)c2C)c1C.N#C[N-]C#N.N#C[N-]C#N, the activity coefficient by setting is: (323.15 K) 0.49 ± 0.04; (333.15 K) 0.49 ± 0.04; (343.15 K) 0.51 ± 0.04.

`c1ccsc1` [thiophene] + CCCCCCCCn1cc[n+](COCCCOC[n+]2ccn(CCCCCCCC)c2C)c1C.O=S(=O)([N-]S(=O)(=O)C(F)(F)F)C(F)(F)F.O=S(=O)([N-]S(=O)(=O)C(F)(F)F)C(F)(F)F: the activity coefficient by setting is: (323.15 K) 0.38 ± 0.03; (333.15 K) 0.37 ± 0.03; (343.15 K) 0.38 ± 0.03.

Take `c1ccsc1` [thiophene] + CCCOC[n+]1ccc(N(C)C)cc1.O=S(=O)([N-]S(=O)(=O)C(F)(F)F)C(F)(F)F: the activity coefficient was determined as 0.65 ± 0.04 (323.15 K), 0.69 ± 0.05 (333.15 K) and 0.69 ± 0.05 (343.15 K).

With `c1ccsc1` [thiophene] + CCCOC[n+]1ccn(C)c1.F[B-](F)(F)F, the activity coefficient is, setting by setting: (323.15 K) 2.26 ± 0.15; (333.15 K) 2.27 ± 0.15; (343.15 K) 2.27 ± 0.15.

`c1ccsc1` [thiophene] + CCCOC[n+]1ccn(C)c1.N#C[N-]C#N: the activity coefficient was determined as 1.41 ± 0.09 (323.15 K), 1.45 ± 0.1 (333.15 K) and 1.5 ± 0.1 (343.15 K).

As to `c1ccsc1` [thiophene] + CCCOC[n+]1ccn(C)c1.O=S(=O)([N-]S(=O)(=O)C(F)(F)F)C(F)(F)F, the activity coefficient (323.15 K) was determined as 1.06 ± 0.07, the activity coefficient (333.15 K) worked out at 1.05 ± 0.07 and the activity coefficient (343.15 K) is 1.04 ± 0.07.

As to `c1ccsc1` [thiophene] + CCCOC[n+]1ccn(Cc2ccccc2)c1.F[B-](F)(F)F, the activity coefficient reads like this: (323.15 K) 1.33 ± 0.09; (333.15 K) 1.27 ± 0.08; (343.15 K) 1.25 ± 0.08.

As for `c1ccsc1` [thiophene] + CCCOC[n+]1ccn(Cc2ccccc2)c1.N#C[N-]C#N, the activity coefficient worked out at 0.98 ± 0.06 (323.15 K), 1.02 ± 0.06 (333.15 K) and 1.04 ± 0.07 (343.15 K).

For the compound `c1ccsc1` [thiophene] + CCCOC[n+]1ccn(Cc2ccccc2)c1.O=S(=O)([N-]S(=O)(=O)C(F)(F)F)C(F)(F)F, the activity coefficient came to 0.7 ± 0.05 (323.15 K), 0.62 ± 0.04 (333.15 K) and 0.62 ± 0.04 (343.15 K).

For the compound `c1ccsc1` [thiophene] + CN(C)c1cc[n+](COCCCOC[n+]2ccc(N(C)C)cc2)cc1.O=S(=O)([N-]S(=O)(=O)C(F)(F)F)C(F)(F)F.O=S(=O)([N-]S(=O)(=O)C(F)(F)F)C(F)(F)F, the activity coefficient (323.15 K) was 0.55 ± 0.04, the activity coefficient (333.15 K) was 0.56 ± 0.04 and the activity coefficient (343.15 K) was 0.57 ± 0.04.

Regarding `c1ccsc1` [thiophene] + Cn1cc[n+](COCCCOC[n+]2ccn(C)c2)c1.N#C[N-]C#N.N#C[N-]C#N, the activity coefficient is, setting by setting: (323.15 K) 1.58 ± 0.1; (333.15 K) 1.63 ± 0.11; (343.15 K) 1.68 ± 0.11.

`c1ccsc1` [thiophene] + Cn1cc[n+](COCCCOC[n+]2ccn(C)c2)c1.O=S(=O)([N-]S(=O)(=O)C(F)(F)F)C(F)(F)F.O=S(=O)([N-]S(=O)(=O)C(F)(F)F)C(F)(F)F: the activity coefficient amounted to 0.77 ± 0.05 (323.15 K), 0.78 ± 0.05 (333.15 K) and 0.78 ± 0.05 (343.15 K).

Regarding `c1ccsc1` [thiophene] + N#C[N-]C#N.N#C[N-]C#N.c1ccc(Cn2cc[n+](COCCCOC[n+]3ccn(Cc4ccccc4)c3)c2)cc1, the activity coefficient was 1.7 ± 0.11 (323.15 K), 1.64 ± 0.11 (333.15 K) and 1.67 ± 0.11 (343.15 K).

As to `Cc1ccccc1` [toluene] + CCCCCCCCn1cc[n+](COCCC)c1C.N#C[N-]C#N, the activity coefficient by setting is: (323.15 K) 1.43 ± 0.09; (333.15 K) 1.22 ± 0.08; (343.15 K) 1.15 ± 0.07.

`Cc1ccccc1` [toluene] + CCCCCCCCn1cc[n+](COCCC)c1C.O=S(=O)([N-]S(=O)(=O)C(F)(F)F)C(F)(F)F: the activity coefficient by setting is: (323.15 K) 0.76 ± 0.05; (333.15 K) 0.76 ± 0.05; (343.15 K) 0.77 ± 0.05.

As to `Cc1ccccc1` [toluene] + CCCCCCCCn1cc[n+](COCCCOC[n+]2ccn(CCCCCCCC)c2C)c1C.N#C[N-]C#N.N#C[N-]C#N, the activity coefficient by setting is: (323.15 K) 0.94 ± 0.06; (333.15 K) 0.95 ± 0.06; (343.15 K) 0.97 ± 0.06.

The record behind these values is the NIST ThermoML archive (doi:10.1016/j.fluid.2014.11.020).
